US20250281424A1 (New York Blood Center, Inc, priority 2020, published 2025)
pIC50: −log10 of the molar value.

Biological target: T1, human PF4 (Homo sapiens, UniProt P02776)
T1 construct: PF4 is a 70 amino acid, lysine-rich 7.8 kDa platelet-specific protein; made in house; host or cells: Escherichia coli BL21DE3 pLysS (pT7-7) and/or Drosophila S2 cells
T1 sequence (P02776 32-101): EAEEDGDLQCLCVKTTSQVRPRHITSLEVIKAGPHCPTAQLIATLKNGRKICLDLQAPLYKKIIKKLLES
Test: Inhibition of PF4 tetramer formation (BS3 cross-linking, SDS-PAGE)
Type: biochemical
Details: for pIC50: read-out: IC50 of PF4 tetramer formation inhibition; for inhibition at 1 µM: 1 μM inhibitor; for inhibition at 1 µM / inhibition at 3 µM / inhibition at 5 µM / inhibition at 10 µM: read-out: % inhibition of PF4 tetramer formation at single concentration of inhibitor; for inhibition at 3 µM: 3 μM inhibitor (column A); for inhibition at 5 µM: 5 μM inhibitor; for inhibition at 10 µM: 10 μM inhibitor (column A)
How it was run: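 Recombinant human wild-type PF4 (E. coli-expressed, heparin-purified), 10 μg/ml in PBS, incubated with compound 15 min at 37° C or 60 min at room temperature, then cross-linked with 0.2 mM BS3 for 30 min at room temperature. Reducing 12% SDS-PAGE; bands quantified as % tetramer, trimer, dimer, monomer versus compound-free control.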

Structure (SMILES)	pIC50	inhibition at 1 µM	inhibition at 3 µM	inhibition at 5 µM	inhibition at 10 µM
O=C(c1ccc2c(c1)C(=O)C(C(=O)Nc1ccc(I)cc1)C2=O)c1ccc2c(c1)C(=O)C(C(=O)Nc1ccc(I)cc1)C2=O (stereo not shown) [Example 105, N-(4-iodophenyl)-5-{2-[(4-iodophenyl)carbamoyl]-1,3-dioxo-2,3-dihydro-1H-indene-5-carbonyl}-1,3-dioxo-2,3-dihydro-1H-indene-2-carboxamide]	5.55				
O=C1c2ccc(S(=O)(=O)c3ccc4c(c3)C(=O)C(C(=O)[C@H]3CCCN3)C4=O)cc2C(=O)C1C(=O)[C@@H]1CCNC1 (stereo partly drawn) [Example 350, 5-({1,3-dioxo-2-[(3R)-pyrrolidine-3-carbonyl]-2,3-dihydro-1H-inden-5-yl}sulfonyl)-2-[(2R)-pyrrolidine-2-carbonyl]-2,3-dihydro-1H-indene-1,3-dione]		18%	39%		
COc1cc(CCNC(=O)C2C(=O)c3ccc(C(=O)c4ccc5c(c4)C(=O)C(C(=O)NCCc4cc(OC)cc(OC)c4)C5=O)cc3C2=O)cc(OC)c1 (stereo not shown) [Example 100, N-[2-(3,5-dimethoxyphenyl)ethyl]-5-(2-{[2-(3,5-dimethoxyphenyl)ethyl]carbamoyl}-1,3-dioxo-2,3-dihydro-1H-indene-5-carbonyl)-1,3-dioxo-2,3-dihydro-1H-indene-2-carboxamide]	~4.89				
CC[C@H](C)[C@H](NC(=O)C1C(=O)c2ccc(Oc3ccc4c(c3)C(=O)C(C(=O)N[C@H](C(=O)OC)[C@@H](C)CC)C4=O)cc2C1=O)C(=O)OC (stereo partly drawn) [Example 331, methyl (2S,3S)-2-({5-[(2-{[(2S,3S)-1-methoxy-3-methyl-1-oxopentan-2-yl]carbamoyl}-1,3-dioxo-2,3-dihydro-1H-inden-5-yl)oxy]-1,3-dioxo-2,3-dihydro-1H-inden-2-yl}formamido)-3-methylpentanoate]		37%	66%		
CCCCC(=O)C1C(=O)c2ccc(C(=O)c3ccc4c(c3)C(=O)C(C(=O)CCCC)C4=O)cc2C1=O (stereo not shown) [Example 153, 5-(1,3-dioxo-2-pentanoyl-2,3-dihydro-1H-indene-5-carbonyl)-2-pentanoyl-2,3-dihydro-1H-indene-1,3-dione]	5.62			100%	100%
O=C(COC1CCCCC1)C1C(=O)c2ccc(S(=O)(=O)c3ccc4c(c3)C(=O)C(C(=O)COC3CCCCC3)C4=O)cc2C1=O (stereo not shown) [Example 232, 2-[2-(cyclohexyloxy)acetyl]-5-({2-[2-(cyclohexyloxy)acetyl]-1,3-dioxo-2,3-dihydro-1H-inden-5-yl}sulfonyl)-2,3-dihydro-1H-indene-1,3-dione]		10%	67%		
CCC(=O)C1C(=O)c2ccc(S(=O)(=O)c3ccc4c(c3)C(=O)C(C(=O)CC)C4=O)cc2C1=O (stereo not shown) [Example 325, 5-[(1,3-dioxo-2-propanoyl-2,3-dihydro-1H-inden-5-yl)sulfonyl]-2-propanoyl-2,3-dihydro-1H-indene-1,3-dione]					34%
COC(=O)[C@@H]1C[C@H]1C(=O)C1C(=O)c2ccc(S(=O)(=O)c3ccc4c(c3)C(=O)C(C(=O)[C@@H]3C[C@H]3C(=O)OC)C4=O)cc2C1=O (stereo partly drawn) [Example 218, methyl (1R,2R)-2-[5-({2-[(1R,2R)-2-(methoxycarbonyl)cyclopropanecarbonyl]-1,3-dioxo-2,3-dihydro-1H-inden-5-yl}sulfonyl)-1,3-dioxo-2,3-dihydro-1H-indene-2-carbonyl]cyclopropane-1-carboxylate]	5.40			67%	92%
CC(C)(C)OC(=O)N1C[C@H](F)C[C@H]1C(=O)C1C(=O)c2ccc(-c3ccc4c(c3)C(=O)C(C(=O)[C@@H]3C[C@@H](F)CN3C(=O)OC(C)(C)C)C4=O)cc2C1=O (stereo partly drawn) [Example 215, tert-butyl (2S,4R)-2-{2′-[(2S,4R)-1-[(tert-butoxy)carbonyl]-4-fluoropyrrolidine-2-carbonyl]-1,1′,3,3′-tetraoxo-1H,1′H,2H,2′H,3H,3′H-[5,5′-biindene]-2-carbonyl}-4-fluoropyrrolidine-1-carboxylate]	5.62				
